The results in this text go back to paper PMC9313321 (Biomedicines, 2022).

Common to all, as to experiment: biochemical
The target in assay [1] is T1, electric eel acetylcholinesterase (eeAChE) (Electrophorus electricus, UniProt O42275).
T1 construct: purchased Sigma-Aldrich
How it is done: (§1) The inhibition of electric eel acetylcholinesterase (eeAChE) and equine butyrylcholinesterase (eqBChE), both obtained from Sigma-Aldrich (Burlington, MA, USA), was studied using an adaptation of Elmman’s method, as previously described. For this, tris(hydroxymethyl)aminomethane (TRIS) 50 mM buffer at pH = 8.00, 4-(2-hydroxyethyl)-1-piperazine-ethanesulfonic acid (HEPES) 50 mM buffer at pH = 8.00 and HEPES 50 mM buffer at pH = 8.00 with NaCl 50 mM and MgCl2 20 mM were prepared. […] Working solutions of AChI and BChI were prepared daily by the proper dilution of the stock solutions in distilled water. A working solution of 5,5′-dithiobis-(2-nitrobenzoic acid) (DTNB) 3 mM in HEPES (NaCl, MgCl2) was prepared daily and kept under darkness. Stock solutions of eeAChE and eqBChE were prepared by dissolving the lyophilized powder enzyme in 10 mL of TRIS buffer under ice and they were divided into aliquots of 50 and 5 UN mL^−1 that were stored at −20 °C until needed. Stock solutions of 1 mg of each ligand in 1 mL MeOH (with 20% of DMSO) were prepared and working solutions for each ligand were obtained by the corresponding dilution from the stock solutions. A control measurement with 5 replicates (without ligand) and a calibration curve of 5 points with 3 replicates per point was derived. […] A blank solution containing HEPES (399 μL) and MeOH (50 μL) was prepared at the same time. […] The experiments were performed twice.

Assay [2] deals with equine butyrylcholinesterase (eqBChE) (Equus caballus, UniProt P81908). The conditions noted are these: for SI (selectivity index): IC50 (AChE)/IC50 (BChE), eeAChE and eqBChE; for IC50: eqBChE, 15 min pre-incubation, pH 8.00, read-out: BChE Inhib IC50. How it is done:
as §1

A further assay has as its target T2, Aβ42 self-aggregation (Homo sapiens, UniProt P05067).
T2 construct: Beta-amyloid protein, fragment 1-42; purchased GeneCust
The assay is classed as biochemical. The following applies: for Aβ42 Self-Aggreg. Inhib: 20 μM inhibitor, absence of copper, thioflavin-T fluorescence, 37 °C 24 h; for inhibition at 20 µM: read-out: Aβ42 Self-Aggreg. Inhib. The procedure:
The inhibition of Aβ42 aggregation and Cu(II)-induced Aβ42 aggregation, carried out by the RIV–BIM hybrids, was studied using a reported method based on the fluorescence emission of thioflavin T [52, 53].
Solutions of phosphate buffer 0.215 M at pH = 8.00, Na2CO3 300 μM in distilled water, NaOH 250 mM in distilled water, glycine-NaOH 50 mM buffer at pH = 8.50 and CuCl2 240 μM in phosphate buffer were prepared. Stock solutions of […] of the RIV–BIM compounds were prepared in MeOH (with 20% DMSO). Working solutions of 240 μM of the RIV–BIM hybrids were prepared by the proper dilution of their stock solutions with phosphate buffer. A working solution of glycine-NaOH 50 mM buffer at pH = 8.50 containing 5 μM of thioflavin T (ThT) was prepared daily. Aβ42 (GeneCust) was pre-treated with 1,1,1,3,3,3-hexafluoro-2-propanol (HFIP) to obtain a solution of 0.149 mM by brief sonication and vortexing, which was kept covered overnight at room temperature. From the Aβ42 solution, aliquots of 250 μL were placed into Eppendorf tubes under ice and set to evaporate inside a hood at room temperature overnight. When the contents of the Eppendorf tubes were dried, the Aβ42 aliquots were stored at −20 °C until needed. To obtain the Aβ42 working solution, the Aβ42 aliquots were dissolved with a freshly prepared mixture of 69.5 μL of CH3CN/Na2CO3 (300 μM)/NaOH (250 mM) (48.3/48.3/3.4, v/v/v) by brief sonication and vortexing to obtain an Aβ42 solution of 531.24 μM. To this solution, 392.5 μL of phosphate buffer was added, achieving an Aβ42 working solution of 80 μM. To prepare the incubations, three replicates of Aβ42 alone (30 μL Aβ42 80 μM + 30 μL phosphate buffer), Aβ42 with RIV–BIM (30 μL Aβ42 80 μM + 10 μL RIV–BIM 240 μM + 20 μL phosphate buffer), Aβ42 with copper (30 μL Aβ42 80 μM + 10 μL CuCl2 240 μM + 20 μL phosphate buffer) and Aβ42 with copper and RIV–BIM (30 μL Aβ42 80 μM + 10 μL CuCl2 240 μM + 10 μL RIV–BIM 240 μM + 10 μL phosphate buffer) were placed in Eppendorfs. To obtain the blank solutions, a similar number of Eppendorfs, replacing Aβ42 with phosphate buffer, were prepared. Incubations were performed in a water bath at 37 °C with agitation for 24 h. Afterwards, 180 μL of glycine-NaOH 50 mM buffer at pH = 8.50 containing 5 μM of ThT was added to each Eppendorf and then they were vortexed. Finally, 200 μL of solution from each Eppendorf was placed in the wells of a microplate and fluorescence measurements were monitored using a Spectramax Gemini EM (Molecular Devices) fluorimeter with an excitation wavelength of 446 nm and an emission wavelength of 485 nm. Blank signals were subtracted from the corresponding samples. The fluorescence intensity of the Aβ42 + RIV–BIM solution was compared to that of the Aβ42 solution to obtain the inhibition of Aβ42 self-aggregation for each compound. The fluorescence intensity of the Aβ42 + Cu(II) + RIV–BIM solution was compared to that of the Aβ42 + Cu(II) solution to obtain the inhibition of the Cu(II)-induced Aβ42 aggregation for each hybrid.
The anti-amyloidogenic capacity of the compounds was assessed in vitro using the thioflavin T (ThT) method. To record fluorescence emission, excitation (446 nm) and emission (485 nm) wavelengths were used. When ThT binds to amyloid fibrils, an increase in absorbance and emission of this dye occurs with concomitant red shifts of the respective spectra. The percent of inhibition of Aβ42 aggregation is shown in Table 1, and the assays were performed in the presence of 20 μM of inhibitor. These concentration conditions were used to overcome solubility problems of some compounds in the aqueous phosphate buffer working medium. […]. […]

T1 sequence (O42275 24-633): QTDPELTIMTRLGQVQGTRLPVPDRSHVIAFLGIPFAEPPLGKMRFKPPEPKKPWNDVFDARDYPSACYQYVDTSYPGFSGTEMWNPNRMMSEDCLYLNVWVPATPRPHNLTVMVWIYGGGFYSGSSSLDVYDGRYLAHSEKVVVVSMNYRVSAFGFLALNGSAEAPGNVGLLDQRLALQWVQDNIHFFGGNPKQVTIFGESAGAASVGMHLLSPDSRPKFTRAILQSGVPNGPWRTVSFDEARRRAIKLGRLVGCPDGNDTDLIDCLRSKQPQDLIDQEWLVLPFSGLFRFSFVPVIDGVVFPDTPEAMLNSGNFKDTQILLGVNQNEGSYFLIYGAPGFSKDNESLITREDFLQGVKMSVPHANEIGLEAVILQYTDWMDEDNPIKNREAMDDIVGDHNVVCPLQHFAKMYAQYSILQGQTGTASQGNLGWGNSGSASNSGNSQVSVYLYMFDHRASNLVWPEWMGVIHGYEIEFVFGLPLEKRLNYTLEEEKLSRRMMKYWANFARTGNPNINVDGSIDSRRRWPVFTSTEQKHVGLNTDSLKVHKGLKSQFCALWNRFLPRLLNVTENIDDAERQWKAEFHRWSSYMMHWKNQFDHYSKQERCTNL
Sequence of equine butyrylcholinesterase (eqBChE) (P81908 whole entry): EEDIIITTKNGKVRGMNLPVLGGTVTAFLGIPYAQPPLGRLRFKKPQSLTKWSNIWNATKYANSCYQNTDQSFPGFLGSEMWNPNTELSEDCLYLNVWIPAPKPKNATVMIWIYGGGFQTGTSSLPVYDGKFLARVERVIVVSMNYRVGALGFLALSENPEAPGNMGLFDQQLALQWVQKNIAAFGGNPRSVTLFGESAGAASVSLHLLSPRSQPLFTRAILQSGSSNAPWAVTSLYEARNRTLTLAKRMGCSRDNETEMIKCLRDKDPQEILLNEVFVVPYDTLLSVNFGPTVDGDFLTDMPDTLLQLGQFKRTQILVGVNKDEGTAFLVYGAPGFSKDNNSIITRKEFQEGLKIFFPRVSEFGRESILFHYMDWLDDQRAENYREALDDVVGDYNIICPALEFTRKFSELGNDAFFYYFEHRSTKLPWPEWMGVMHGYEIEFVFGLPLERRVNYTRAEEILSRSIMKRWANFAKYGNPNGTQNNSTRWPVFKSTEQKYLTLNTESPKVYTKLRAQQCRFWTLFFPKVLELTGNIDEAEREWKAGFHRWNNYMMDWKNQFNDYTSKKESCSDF
T2 sequence (P05067 672-713 limits assumed): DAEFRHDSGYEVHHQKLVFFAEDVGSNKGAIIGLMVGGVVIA

With `CCN(C)C(=O)Oc1ccc(CCCNC(=O)c2ccc3nc(-c4ccccc4O)[nH]c3c2)cc1` [Compound 4d, 4-(3-(2-(2-Hydroxyphenyl)-1H-benzo[d]imidazole-6-carboxamido)propyl) Phenyl Ethylmethylcarbamate], in assay [1], 24 ± 1 µM corresponded to half-maximal inhibition (IC50). In addition, in assay [2], the “SI (selectivity index)” value is listed as 1.25 and the IC50 (usually the concentration needed to halve the response being measured) came out at 19.2 ± 0.7 µM. In addition, at Aβ42 self-aggregation, the “Aβ42 Self-Aggreg. Inhib” value is on record as “very weakly effective” and the inhibition at 20 µM came to 20.1%.
Turning to `CCN(C)C(=O)Oc1cccc(CNC(=O)c2cccc3[nH]c(-c4ccccc4O)nc23)c1` [Compound 5b, 3-((2-(2-Hydroxyphenyl)-1H-benzo[d]imidazole-4-carboxamido)methyl) Phenyl Ethylmethylcarbamate], the IC50 in assay [1] amounted to 31.7 ± 0.1 µM; in assay [2] it was 0.3 ± 0.01 µM. In addition, the “SI (selectivity index)” value in assay [2] was determined as 105.7. On Aβ42 self-aggregation, the inhibition at 20 µM came to 58.7%.
`CCN(C)C(=O)Oc1cccc(CCNC(=O)c2ccc3nc(-c4ccccc4O)[nH]c3c2)c1` [Compound 4c, 3-(2-(2-(2-Hydroxyphenyl)-1H-benzo[d]imidazole-6-carboxamido)ethyl) Phenylethylmethylcarbamate]: the IC50 in assay [1] is 17.7 ± 0.8 µM. Further, in assay [2], the “SI (selectivity index)” value stood at 3.69 and the IC50 was determined as 4.8 ± 0.1 µM. For the same compound, at Aβ42 self-aggregation, the “Aβ42 Self-Aggreg. Inhib” value was “very weakly effective” and the inhibition at 20 µM stood at 21.2%.
Consider `CCN(C)C(=O)Oc1cccc(NC(=O)c2cccc3[nH]c(-c4ccccc4O)nc23)c1` [Compound 5a, 3-(2-(2-Hydroxyphenyl)-1H-benzo[d]imidazole-4-carboxamido)phenyl Ethylmethylcarbamate], for which the IC50 is 17.6 ± 0.4 µM in assay [1] and 0.9 ± 0.1 µM in assay [2]. In addition, the “SI (selectivity index)” value in assay [2] stood at 19.6. For the same compound, on Aβ42 self-aggregation, the inhibition at 20 µM came out at 44.5%.
The matching figures for `CCN(C)C(=O)Oc1cccc(NC(=O)c2ccc3nc(-c4ccccc4O)[nH]c3c2)c1` [Compound 4a, 3-(2-(2-Hydroxyphenyl)-1H-benzo[d]imidazole-6-carboxamido)phenyl Ethylmethylcarbamate]: 17.6 ± 0.6 µM, 5.85 ± 0.03 µM, 3.03 and 39%.
The matching figures for `CCN(C)C(=O)Oc1ccc(CCCNC(=O)c2cccc3[nH]c(-c4ccccc4O)nc23)cc1` [Compound 5d, 4-(3-(2-(2-Hydroxyphenyl)-1H-benzo[d]imidazole-4-carboxamido) Propyl) Phenyl Ethyl(methyl)carbamate]: 21.4 ± 0.4 µM, 1.7 ± 0.2 µM, 12.6 and 42.1%.
The matching figures for `CCN(C)C(=O)Oc1cccc(CNC(=O)c2ccc3nc(-c4ccccc4O)[nH]c3c2)c1` [Compound 4b, 3-((2-(2-Hydroxyphenyl)-1H-benzo[d]imidazole-6-carboxamido)methyl) Phenyl Ethylmethylcarbamate]: 14 ± 2 µM, 6.5 ± 0.4 µM, 2.17 and 39.6%.
